Measurements reported in ChEMBL document CHEMBL4418295, “Method for identifying modulators of GPCR GPR1 function” (2014).

Molecular target: T1, Chemerin-like receptor 2 (Homo sapiens, UniProt P46091)
T1 sequence (P46091 whole entry): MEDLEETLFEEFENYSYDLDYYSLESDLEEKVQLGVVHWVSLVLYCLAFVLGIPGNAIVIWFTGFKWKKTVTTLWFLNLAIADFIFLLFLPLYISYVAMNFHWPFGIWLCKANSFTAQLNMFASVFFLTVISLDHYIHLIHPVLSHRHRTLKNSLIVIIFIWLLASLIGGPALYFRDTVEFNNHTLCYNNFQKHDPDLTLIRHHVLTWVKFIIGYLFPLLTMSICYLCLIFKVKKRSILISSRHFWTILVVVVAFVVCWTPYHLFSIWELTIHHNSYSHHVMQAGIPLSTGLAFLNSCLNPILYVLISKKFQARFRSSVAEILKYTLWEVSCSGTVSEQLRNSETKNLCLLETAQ
Experiment: Agonist activity at recombinant human GPR1 expressed in CHOK1 PathHunter cells assessed as beta-arrestin 2 recruitment incubated for 90 mins by luminescence assay
Assay type: cell-based

SMILES: CC[C@H](C)[C@H](NC(=O)[C@H](CCC(=O)O)NC(=O)[C@@H](CO)NC(=O)[C@@H](NC(=O)[C@H](CC(C)C)NC(=O)[C@H](CC(C)C)NC(=O)[C@H](CC(C)C)NC(=O)[C@H](CC(C)C)NC(=O)[C@H](CS)NC(=O)[C@H](CO)NC(=O)[C@H](Cc1ccccc1)NC(=O)CNC(=O)[C@H](CCCNC(=N)N)NC(=O)[C@@H]1CCCN1C(=O)[C@H](C)NC(=O)[C@@H](N)CCSC)[C@@H](C)O)C(=O)N[C@@H](CC(=O)O)C(=O)N[C@@H](CC(C)C)C(=O)N1CCC[C@H]1C(=O)N[C@H](C(=O)N[C@@H](CCCCN)C(=O)N[C@@H](CCCNC(=N)N)C(=O)N[C@@H](CCCNC(=N)N)C(=O)N[C@@H](C)C(=O)O)C(C)C
- EC50: 92.8 nM
